From patent US12171813B2, “Methods of and compositions for reducing gene expression and/or activity” (Christiana Care Gene Editing Institute, Inc., priority 2021, dated 2024)

Test system: NRF2 gene
Assay: Genomic DNA PCR assessment of large deletions in NRF2 gene
Assay type: cell-based, Human
Details: gRNA alone, not paired
Procedure: After CRISPR reactions, genomic DNA was prepared for PCR amplification of the target region from NRF2 gene. PCR-amplified DNA was then analyzed by electrophoresis through a 1% agarose gel for 75 minutes at 80v. DNA was stained with SYBR Safe. Lanes 1 and 12: NEB 2 Log Ladder; Lane 2: Scrambled gRNA; Lane 3: R34G gRNA alone; Lane 4: NRF2 3-4 SureKill gRNA 3 alone; Lane 5: NRF2 3-4 SureKill gRNA 12 alone; Lane 6: NRF2 3-4 SureKill gRNA 14 alone; Lane 7: NRF2 3-4 SureKill gRNA 15 alone; Lane 8: NRF2 3-4 SureKill gRNA 3+R34G gRNA; Lane 9: NRF2 3-4 SureKill gRNA 12+R34G gRNA; Lane 10: NRF2 3-4 SureKill gRNA 14+R34G gRNA; Lane 11: NRF2 3-4 SureKill gRNA 15+R34G gRNA. On the left side of the image are markers indicating DNA size in bp. Expected dropout size for NRF2 3-4 SureKill gRNA 3+R34G gRNA: 676 bp. Expected dropout size for NRF2 3-4 SureKill gRNA 12+R34G gRNA: 658 bp. Expected dropout size for NRF2 3-4 SureKill gRNA 14+R34G gRNA: 582 bp. Expected dropout size for NRF2 3-4 SureKill gRNA 15+R34G gRNA: 515 bp. Dropout bands are indicated by asterisks.
Human lung squamous cell carcinoma NCI-H1703 clone 44-25 cells were derived from NCI-H1703 cells (#CRL-5889) which were purchased from ATCC (Manassas, VA, USA). […]
Transfections were carried out using the Lonza Nuclefector 4d. […] RNPs were complexed at 250:50 pmol for 30 minutes prior to transfection, during which time cells were harvested and counted. […]

R34G gRNA: guide RNA GATATAGATCTTGGAGTAAG, SEQ ID NO:1, targets NRF2 R34G mutation (listed as DNA, chemistry not given here)
large deletions (genomic DNA PCR): does not induce a large deletion
